Source: patent publication US4980377A, “1-(aminophenyl)-2-aminopropanone derivatives” (Laboratoire L. Lafon, priority 1984, dated 1990)
Structures can show the parent of a compound that is named as a salt.

Key:
mice [1] = assay: Intergroup aggressiveness; format: in vivo, mouse; settings: i.p.
Description: After they have stayed for 3 weeks in the two halves of a cage divided by an opaque partition, groups of 3 mice receive CRL 41 153. Half an hour later, the two groups from the same cage are brought together by removal of the partition, and the number of fights which occur in 10 minutes is noted.

mice [2] = assay: Behavioral despair; format: in vivo, mouse; settings: forcibly immersed mice, i.p.
Description: Half an hour after they have received CRL 41 153, groups of 6 mice are placed in a beaker filled with water to a height of 6 cm. The total period of immobility between the 2nd and 6th minutes following immersion is noted.

[3] = test system: gravid White New Zealand female rabbits; assay: Teratogenicity in gravid White New Zealand rabbits; format: in vivo, rabbit; settings: day 5 to day 18 of gestation; for Affected foetuses, %: normal limit 1.5%
In short: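 Fetuses harvested by cesarean on gestation day 29 were scored for number and for any malformation (limb blockade, anury, tail or skull defects, exencephaly).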

## CC(C)NC(C)C(=O)c1ccc(N)cc1 (centres unmarked) [CRL 41 153, 1-(4-aminophenyl)-2-isopropylaminopropanone dihydrochloride]
Mice [1]
  Number of fights / intergroup aggressiveness: at a dose of 8 mg/kg, CRL 41 153 reduces the number of fights
Mice [2]
  Period of immobility due to despair: at doses greater than or equal to 0.5 mg/kg, CRL 41 153 reduces the period of immobility
[3]; 5 mg/kg daily
  Affected foetuses, number: 0
  Total foetuses (live): 90
  Affected foetuses, %: 0%
[3]; 10 mg/kg daily
  Affected foetuses, number: 1
  Total foetuses (live): 88
  Affected foetuses, %: 1.13%
[3]; 50 mg/kg daily
  Affected foetuses, number: 0
  Total foetuses (live): 93
  Affected foetuses, %: 0%
